Data taken from ChEMBL document CHEMBL1201862, “PubChem BioAssay data set” (2004).
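Following 48 hours of exposure in 96-well plates, responses at five concentrations were used to interpolate endpoints linearly. Here, GI50 denotes the concentration required for 50% inhibition of growth.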 Calls of active or inactive are those of the source. No stated cut-off is given here; in the data, active = GI50 up to about 1.1 µM and inactive = higher.

Tests used:
Assay in all cases: DTP human tumour cell line panel, 48 h
[1] = tested on: T47D
[2] = tested on: NCI-H522
[3] = tested on: SK-MEL-5
[4] = tested on: SR
[5] = tested on: RXF 393
[6] = tested on: UO-31
[7] = tested on: M14
[8] = tested on: HCC 2998
[9] = tested on: HCT-15
[10] = tested on: A549
[11] = tested on: KM12
[12] = tested on: MOLT-4
[13] = tested on: COLO 205
[14] = tested on: NCI/ADR-RES
[15] = tested on: CCRF-CEM
[16] = tested on: EKVX
[17] = tested on: OVCAR-5
[18] = tested on: SF-295
[19] = tested on: MDA-N
[20] = tested on: SF-539
[21] = tested on: MDA-MB-231
[22] = tested on: OVCAR-8
[23] = tested on: U-251
[24] = tested on: SNB-75
[25] = tested on: SK-MEL-28
[26] = tested on: IGROV-1
[27] = tested on: DU-145
[28] = tested on: NCI-H460
[29] = tested on: RPMI-8226
[30] = tested on: TK-10
[31] = tested on: SF-268
[32] = tested on: SN12C
[33] = tested on: ACHN
[34] = tested on: UACC-257
[35] = tested on: UACC-62
[36] = tested on: PC-3
[37] = tested on: MCF7
[38] = tested on: MDA-MB-435
[39] = tested on: CAKI-1
[40] = tested on: HCT-116
[41] = tested on: SK-OV-3
[42] = tested on: HT-29
[43] = tested on: K562
[44] = tested on: SW-620
[45] = tested on: LOX IMVI
[46] = tested on: OVCAR-4
[47] = tested on: HOP-92
[48] = tested on: HOP-62
[49] = tested on: 786-0
[50] = tested on: Hs-578T
[51] = tested on: A498
[52] = tested on: OVCAR-3
[53] = tested on: BT-549
[54] = tested on: SK-MEL-2
[55] = tested on: NCI-H23
[56] = tested on: SNB-19

Measured: GI50

O=[N+]([O-])/C=C/COCc1cc2c(cc1Br)OCO2
inactive: [1] 16.7 µM | [2] 22 µM | [3] 20.2 µM | [4] 23.4 µM | [5] 16.7 µM | [6] 17.2 µM | [7] 16.3 µM | [8] 16.7 µM | [10] 21.7 µM | [11] 19 µM | [12] 48.3 µM | [13] 23.1 µM | [14] 21.1 µM | [15] 1.15 µM | [16] 20.1 µM | [17] 16.7 µM | [18] 36.8 µM | [19] 18.2 µM | [20] 27.9 µM | [21] 18.9 µM | [22] 31.9 µM | [23] 17 µM | [24] 17.4 µM | [25] 11.6 µM | [26] 29.8 µM | [27] 18.9 µM | [28] 29.9 µM | [29] 39.5 µM | [30] 17.4 µM | [31] 19.1 µM | [32] 18.6 µM | [33] 16.4 µM | [34] 17.3 µM | [35] 16.5 µM | [36] 13 µM | [37] 17.2 µM | [38] 13.9 µM | [39] 20.6 µM | [40] 17.6 µM | [41] 43.1 µM | [42] 20.8 µM | [43] 58.2 µM | [44] 16 µM | [45] 33.8 µM | [46] 18.6 µM | [47] 23.2 µM | [48] 20.1 µM | [49] 13.8 µM | [50] 23.6 µM | [51] 27.6 µM | [52] 16.4 µM
18 µM: [9]

Cc1cc(C)c(C#N)c(SC(=S)NC(=O)c2ccc(Cl)cc2)n1
inactive: [1] > 100 µM | [3] > 100 µM | [5] > 100 µM | [6] > 100 µM | [7] > 100 µM | [8] > 100 µM | [10] > 100 µM | [11] > 100 µM | [13] > 100 µM | [14] > 100 µM | [15] > 100 µM | [16] > 100 µM | [17] > 100 µM | [18] > 100 µM | [21] > 100 µM | [22] > 100 µM | [23] > 100 µM | [24] > 100 µM | [25] > 100 µM | [27] > 100 µM | [28] > 100 µM | [29] > 100 µM | [30] > 100 µM | [31] > 100 µM | [53] > 100 µM | [33] > 100 µM | [54] > 100 µM | [34] > 100 µM | [35] > 100 µM | [36] > 100 µM | [55] > 100 µM | [37] > 100 µM | [38] > 100 µM | [39] > 100 µM | [40] > 100 µM | [41] > 100 µM | [44] > 100 µM | [45] > 100 µM | [46] > 100 µM | [47] > 100 µM | [56] > 100 µM | [48] > 100 µM | [49] > 100 µM | [51] > 100 µM | [52] > 100 µM
> 100 µM: [9]
